This note sets out measurements from patent publication US7745465B2, “Method of enhancing cellular production of molecular chaperone, hydroxylamine derivatives useful for enhancing the chaperone production and the preparation thereof” (CytRx Corporation, priority 1995, dated 2010).

Data set [1] concerns Male Sprague-Dawley rats. Description: Protection against cardiac ischaemia: survival after 5 minutes coronary occlusion and reperfusion. The class given is in vivo, rat.
Data set [2] concerns HaCaT cells. Description: Protection of HaCaT keratinocytes against 48° C. heat exposure (viability). The class given is cell-based, human. An excerpt:
HaCaT cell line is a spontaneously immortalized, ancuploid human keratinocyte cell line derived from normal human adult skin (Boukamp et al., J. Cell Biol. 106:761-771 (1988)), HaCaT is a cell line with full epidermal differentiation capacity, with normal keratinization and with nontumorogenic character. This rapidly multiplying keratinocyte line with high ditharnol sensitivity is also characterized by the presence of steroid receptors. HaCaT cells (4×10^5 cells per Petri-dish with a diameter of 35 mm) were seeded and grown in DMEM supplemented with 5% fetal calf serum (Gibco, Cat. No. 011-6290H) under a humidified atmosphere of 5% CO2 at 37° C. 24 hours after plating, the cultures were rinsed with PBS and treated by heat or light.
The confluent cultures of the cells were exposed to heat (42, 44, 46, 47, 48° C.) or UV light (UVA I, 2, 4, 6 J/cm^2). Heat exposure was provided in circulating water baths. As a UV light source, Waldmann PUVA 4000 was used with an energy spectrum of the final output between 320 an 390 nm, peaking at 365 nm. The energy output was monitored by an IL-1700 radiometer equipped with UVA and UVB sensor.
The morphology of the cells was monitored using phase contrast microscopy (Opton Axioplan Microscope, with Plan-Apochromat Ph phase contrast objectives). […]

The test system of data set [3] is P 1. Description: P1 transcription factor activity in yeast cells. The class given is cell-based. The settings on record: minimal medium. The source says: It was also investigated if the activity of AP-1 and P 1 transcription factors can be modulated by N-[2-hydroxy-3-(1-piperidinyl)propoxy]-3-piridinecarboximidoyl chloride maleate in yeast cells exposed to various stress conditions.

Data set [4] deals with HSP-70. Description: Myocardial HSP-70 protein content in isolated rat hearts (Western blot). On the procedure: In separate experiments the effects of heat stress, ischemia, N-[2-hydroxy-3-(1-piperidinyl)propoxy]-3-pyridine carboximidoyl chloride maleate and their combination were studied on myocardial HSP-70 protein content. Isolated hearts were subjected to 15 min. heat-stress (42° C.), global normothermic ischemia, and N-[2-hydroxy-3-[…](1-piperidinyl)propoxy]-3-pyridine carboximidoyl chloride maleate perfusion followed by 120 and 180 min. reperfusion, respectively.

In data set [5] the test system is Hsp72. As to the kind of experiment: Heat stress induced hsp72 expression in rat testicular explant. The class given is cell-based. Particulars: 10^−5 M, 15 min. before 43° C. 30 min. On the procedure:
Testis of CFY rats weighing of 200 g were removed in sterile conditions and the released testicular tubuli were suspended in 10% fetal bovine serum containing MEM culture medium in that way that five ml suspension contained 50-100 mg tissue. The explants were incubated in 5% CO2 containing humidified air at 37° C. for one hour, then the cultures were treated with 10^−5 M concentration of the tested compounds. After a further incubation for 15 min. at 37° C., explants were exposed to heat shock at 43° C. for 30 min. The amount of the induced hsp72 was measured after a further 6 hours incubation at 37° C.

Structures are written as SMILES.

Take `O=C(O)/C=C\C(=O)O.OC(CON=C(Cl)c1cccnc1)CN1CCCCC1` (centres unmarked) [N-[2-hydroxy-3-(1-piperidinyl)-propoxy]3-pyridinecarboximidoyl chloride maleate]: the Survival (%) in data set [1] (20 mg/kgbw p.o.) is 100%; in data set [1] (i.v. 1 mg/kgbw, 5 min. before the occlusion, non-treated control 10), 100%. In addition, the increase in viability in data set [2] (combined treatment with 42° C. and compound, 24 hours after 48° C.) is on record as 140%. For the same compound, the “cell viability increased to” value in data set [2] (pre-treatment 5×10^-5 M for one hour, 24 hours after the 48° C. treatment) amounted to 84%. For the same compound, the “activity of P 1” value in data set [3] was “activity decreased”. Further, the “myocardial HSP-70 content” value in data set [4] (compound alone) is recorded as “did not increase myocardial HSP-70 content”; in data set [4] (ischemia in the presence of 20 mg/l), “increased to approximately the same level as found after heat stress”. The “Level of hsp72 relative to the stress exposed control” value in data set [5] is “+ + +”.
